In patent US6797500B2, “Genes involved in cyclododecanone degradation pathway” (E. I. du Pont de Nemours and Company, priority 1999, dated 2004):

Key:
Rhodococcus ruber SC1 = test: Growth of Rhodococcus ruber SC1 on cyclic ketones as sole carbon and energy source; assay type: cell-based; settings: for Growth of Rhodococcus ruber SC1: cyclic ketone as sole carbon and energy source
Protocol: Synthetic S12 medium was used to establish enrichment. S12 medium contains the following: 10 mM ammonium sulfate, 50 mM potassium phosphate buffer (pH 7.0), 2 mM MgCl2, 0.7 mM CaCl2, 50 μM MnCl2, 1 μM FeCl3, 1 μM […], 1.72 μM CuSO4, 2.53 μM CoCl2, 2.42 μM […], and 0.0001% FeSO4. The carbon sources were added directly to the S12 medium and the bacteria were grown in sealed culture flasks.
S12 agar was used to test isolates that utilize compounds as the sole source of carbon and energy. S12 agar was prepared by adding 1.5% Noble agar (DIFCO) to S12 medium. Bacteria growing on S12 agar were supplied with volatile compounds such as cyclododecanone by sprinkling solids of the volatile compound on the interior of the petri dish lid or 5 μl of other volatile liquid as vapor. The petri dish was sealed with parafilm and incubated with the lid on the bottom.
Rhodococcus ruber SC1 isolated from cyclododecanone (C12 cyclic ketone) enrichment culture was also tested for growth on cyclic ketones of different carbon numbers as sole carbon and energy source (Table 3). It grows well on cyclopentadecanone (C15 cyclic ketone), cyclotridecanone (C13 cyclic ketone), cyclododecanone (C12 cyclic ketone) and cycloundecanone (C11 cyclic ketone).

[1] = tested on: monooxygenase and esterase on the S8C; test: Production of different chain length hydroxy acids from cyclic ketones by recombinant E. coli cosmid clone S8C (GC/MS); assay type: cell-based, Escherichia coli; settings: cyclic ketone substrate 250 mg/L
Protocol: Transformed XL1-Blue MR cells were grown in M9 medium with 0.4% glucose as sole carbon source. Substrate for conversion was added at early log phase (OD=0.2) and cells were allowed to grow at 30° C. for 20 additional hours. Cells were then frozen and thawed once, centrifuged, and supernatant was filtered through 0.2 μm filters. Filtrate was prepared for GC/MS analysis as described below.
Filtrate was first acidified to pH 2 using concentrated HCl. The acidified sample was extracted twice with methylene chloride or ethyl acetate. The extracts were combined and dried by adding anhydrous magnesium sulfate. Magnesium sulfate was then removed by filteration using Whatman 3MM filter paper and the remaining solvent in the filtrate was evaporated under a gentle stream of nitrogen. The dried residues were resuspended in 0.5 mL of methylene chloride as underivatized samples or derivatized with 0.5 mL of BSTFA [bis (trimethylsilyl) trifluoroacetamide] silylation reagent (SUPELCO, Bellefonte, Pa.). The GC/MS analysis was performed using a Hewlett Packard 5989B MS Engine GC/MS instrument. Samples were injected onto a 30 meter MDN-5S capillary column (SUPELCO, 0.5 μm film thickness) for separation. GC/MS analysis was conducted using electron impact ionization (70 eV).
Example 8 explores whether the cyclic substrates could be expanded to cyclic ketones of different chain length and whether corresponding hydroxy acids could be produced. S8C was grown as described above except that different cyclic ketones were added. Cyclohexanone (C6), cycloheptanone (C7), cyclooctanone (C8), cyclodecanone (C10), cycloundecanone (C11), cyclododecanone (C12), cyclotridecanone (C13) and cyclopentadecanone (C15) were added as substrates at 250 mg/L concentration. Identification of the corresponding hydroxy acids produced was performed by GC/MS analysis as described above. Large amount of corresponding hydroxy acids were detected from S8C grown in the presence of C11, C12 and C13 cyclic ketones. Medium level of 15-hydroxy acid was detected from C15 cyclic ketone grown cells. Small amount of hydroxy acids was detected from cells grown on C6 and C10 cyclic ketones. […] The substrate range of the monooxygenase and esterase on the S8C appeared to favor long chain cyclic ketones (C>10). This correlated well with the growth substrate range ([…]) of the Rhodococcus ruber SC1. The ability of Rhodococcus ruber SC1 to grow on cyclic ketones of C11-C15 was likely due to the relatively broad substrate specificity of the single set of monooxygenase and esterase encoded on S8C clone (Table 3). It is possible that mixture of the large cyclic ketones may be used as substrates in a biotransformation to produce a mixture of long chain hydroxy acids or diacids for certain applications.

| SMILES | Growth of Rhodococcus ruber SC1 on cyclic ketone (in words) (Rhodococcus ruber SC1) | Growth of Rhodococcus ruber SC1 (Rhodococcus ruber SC1) | Corresponding Hydroxy Acid Produced by E. coli Cosmids [1] | Corresponding hydroxy acid detected (in words) [1] |
| --- | --- | --- | --- | --- |
| O=C1CCCCCCCCCC1 [C11, cycloundecanone] | grows well | + | ++ | Large amount |
| O=C1CCCCCCCCCCC1 [C12, cyclododecanone] | grows well | + | ++ | Large amount |
| O=C1CCCCCCCCC1 [C10, cyclodecanone] | grows moderately well | + | +/− | Small amount |
| O=C1CCCCCC1 [C7, cycloheptanone] | does not grow | − | − | No hydroxy acid was detected |
| O=C1CCCCC1 [C6, cyclohexanone] | does not grow | − | +/− | Small amount |
| O=C1CCCCCCCCCCCCCC1 [C15, cyclopentadecanone] | grows well | + | + | Medium level |
| O=C1CCCCCCC1 [C8, cyclooctanone] | does not grow | − | − | No hydroxy acid was detected |
| O=C1CCCCCCCCCCCC1 [C13, cyclotridecanone] | grows well | + | ++ | Large amount |
